The conditions of series [1]: known from DE patent 24 07 115; cited from earlier work.
The conditions of series [2]: cited from earlier work.
Series [3] is described as follows: Differential scanning calorimetry: thermal stability (Example 4). In kind it is physicochemical. Particulars: DSC. The protocol:
Nicardipine hydrochloride melts at 160° C., its thermal decomposition beginning at about 200° C. Beta-cyclodextrin contains combined water, which begins to separate off the sample already at about 40° C. The dehydratation of beta-cyclodextrin is completed at about 100° C. Anhydrous beta-cyclodextrin is stable up to 270° C., when thermal decomposition starts, which becomes intensive at 300° C. The behaviour of the inclusion complex of nicardipine hydrochloride with beta-cyclodextrin at the thermoanalytical assay is quite different. After the initial slight loss of weight at temperatures below 150° C., which can be attributed to the adsorbed moisture, the substance is stable up to about 220° C, when thermal decomposition sets in. […] The DSC scans of nicardipine hydrochloride, beta-cyclodextrin, the physical mixture of nicardipine hydrochloride and beta-cyclodextrin and of the inclusion complex of nicardipine hydrochloride with beta-cyclodextrin clearly indicate the formation of the inclusion complex of nicardipine hydrochloride with beta-cyclodextrin. Thus, the differential scanning calorimetry measurements are in accordance with the powder X-ray diffraction patterns.

Take `COC(=O)C1=C(C)NC(C)=C(C(=O)OCCN(C)Cc2ccccc2)C1c1cccc([N+](=O)[O-])c1` (centres unmarked) [nicardipine, 2-(N-benzyl-N-methylamino)-ethyl methyl 2,6-dimethyl-4-(m-nitrophenyl)-1,4-dihydropyridine-3,5-dicarboxylate]: the toxicity entry in series [1] is on record as “low toxicity”. The “solubility in biological fluids” value in series [2] (pH of 5 to 8) was “poor solubility”. Further, in series [2] (water), the water solubility result is listed as “unsatisfactory”.
In the case of `OC[C@H]1O[C@@H]2O[C@H]3[C@H](O)[C@@H](O)[C@@H](O[C@H]4[C@H](O)[C@@H](O)[C@@H](O[C@H]5[C@H](O)[C@@H](O)[C@@H](O[C@H]6[C@H](O)[C@@H](O)[C@@H](O[C@H]7[C@H](O)[C@@H](O)[C@@H](O[C@H]8[C@H](O)[C@@H](O)[C@@H](O[C@H]1[C@H](O)[C@H]2O)O[C@@H]8CO)O[C@@H]7CO)O[C@@H]6CO)O[C@@H]5CO)O[C@@H]4CO)O[C@@H]3CO` [beta-cyclodextrin], the “onset of thermal decomposition (stable up to)” value in series [3] was 270 °C. The “temperature at which thermal decomposition becomes intensive” value in series [3] (anhydrous) stood at 300 °C.

The values are drawn from US5079237A, “Inclusion complex of nicardipine or its hydrochloride with beta-cyclodextrin and a sustained release pharmaceutical preparation containing the same” (priority 1988, dated 1992).
